Where a SMILES comes first, the peptide text is derived from it. [ ]: non-standard residue; d: D form. The star is where a group is joined. Bz = O=C(c1ccccc1)*; NPr2 = CCCN(CCC)*

One assay has as its system MITF. In words: MITF protein expression in human skin ex vivo (immunohistochemistry). The class given is cell-based. Conditions: topical 30, 100 and 200 µM, six days; p < 0.05. Here is the method: Following declaration of Helsinki principles (DoH-Oct2013, World Medical Association, Ferney-Voltaire, France), human skin samples were obtained from elective plastic surgery after informed consent was obtained. For the two experiments shown in Figure 2, Figure 3 and Figure 4, we had one person with an individual topology angle (ITA°) of 18, and one person with an ITA° of 39 [69]. The skin samples were cut in pieces of 8 × 3 mm and cultured up to day 6. Skin samples were cultured in an air–liquid interface in a perforated ring of stainless steel in contact with culture medium (modified Williams’ E medium). The culture medium was renewed every three days (i.e., day 0–3). Compounds were added daily in DMSO at 4 µL volume. At day 6, the skin samples were fixed in formalin, embedded in paraplast, and cut at the microtome for histochemical staining and consequent image analysis. Six skin biopsies were used for each single treatment.
Twelve skin sections from the ex vivo melanogenesis experiment above were immunoassayed with the selected antibodies (TYR, Thermo Scientific #MS-800-P0 (Thermo Scientific, Waltham, MA, USA); TYRP-1, Covance #SIG-38150 (Covance Inc., Princeton, NJ, USA), MITF, Abcam #ab80651 (Abcam plc, Cambridge, UK). The number of positive cells within the epidermis was counted and the value was normalized upon the length of the basal lamina, thus obtaining a score. […]

Another assay has as its target human 5-HT2AR (Homo sapiens, UniProt P28223). In words: 5-HT2AR activation, Aequorin assay. The class given is cell-based. Conditions: eight concentrations, 0.01 to 100,000 nM. Here is the method:
Melanin-concentrating hormone receptor (MCHR), endothelin-1 receptor (ETBR), and serotonin-receptor (5-HT2AR) assays were performed by means of Aequorin assays. Recombinant cells co-expressing human MCH1R, MCH2R, ETBR, or 5-HT2AR and mitochondrial apoaequorin (MCH1R, MCH2R and 5-HT2AR cells also co-express recombinant Gα16 protein) (EuroscreenFast, Gosselies, Belgium), grown 18 h prior to the test in media without antibiotics, were detached by gentle flushing with PBS-EDTA (5 mM EDTA), recovered by centrifugation, and resuspended in assay buffer (DMEM/HAM’s F12 with HEPES + 0.1% BSA protease free). Cells were incubated under agitation at room temperature for at least 4 h with Coelenterazine h (Promega, X300X, 0.5 µM final concentration). Dose response curves with the reference compounds were performed before testing the compounds. For agonist testing, 50 µL of cell suspension was injected on 50 µL of test compound or reference agonist diluted in assay buffer and plated in a 96-well plate. The resulting emission of light was recorded using the Hamamatsu Functional Drug Screening System 6000 (FDSS 6000). […] Agonist activity of test compound was expressed as a percentage of the activity of the reference agonist at its EC100 concentration.

Another assay deals with T1, OP3R (Homo sapiens, UniProt P35372).
T1 construct: host or cells: CHO-K1 (membrane preparations)
T1 sequence (P35372 whole entry): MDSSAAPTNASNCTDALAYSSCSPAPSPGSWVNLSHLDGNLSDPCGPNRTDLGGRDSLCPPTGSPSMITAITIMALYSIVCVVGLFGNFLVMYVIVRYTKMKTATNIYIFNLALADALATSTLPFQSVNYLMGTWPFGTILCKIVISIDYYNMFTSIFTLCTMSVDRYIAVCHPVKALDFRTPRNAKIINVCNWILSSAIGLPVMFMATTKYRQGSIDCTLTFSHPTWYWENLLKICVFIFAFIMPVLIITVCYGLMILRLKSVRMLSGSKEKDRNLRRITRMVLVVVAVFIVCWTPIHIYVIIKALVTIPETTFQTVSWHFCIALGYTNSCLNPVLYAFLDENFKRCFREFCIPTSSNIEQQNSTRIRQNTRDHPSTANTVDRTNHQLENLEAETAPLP
In words: OP3R (mu opioid) activation, GTPγS scintillation proximity assay. The class given is biochemical. Conditions: eight concentrations, 0.01 to 100,000 nM. On the procedure: (§1) Melatonin (MT1R and MT2R) and opioid receptor (OP1R, OP2R, and OP3R, corresponding to human delta, kappa, and mu opioid receptors) activation assays were performed by means of GTPγS scintillation proximity assays. For agonist testing, membrane preparations from CHO-K1 cells expressing each receptor (EuroscreenFast, Gosselies, Belgium) were mixed with guanosine diphosphate (GDP) (v/v). In parallel, GTPγ[^35S] (PerkinElmer, NEG030X, 0.1 nM final assay concentration) was mixed with PVT-WGA beads (Perkin Elmer, RPNQ001, 0.5 mg/well final assay density) (v/v) just before starting the reaction. The following reagents were then successively added in the wells of an Optiplate (Perkin Elmer): A total of 50 µL of test or reference ligand diluted in assay buffer, 10 µL of assay buffer (20 mM HEPES pH 7.4; 100–200 mM NaCl, 10 µg/mL saponin, MgCl2 at optimized concentration for the specific receptor, 0%–0.1% BSA), 20 µL of the membranes: GDP mix, and 20 µL of the GTPγ[^35S]: Beads mix. The plates were covered with a top seal, mixed on an orbital shaker for 2 min, and then incubated for 1 h at room temperature. Then the plates were centrifuged for 10 min at 2000 rpm, incubated at room temperature for 1 h, and counted for 1 min/well with a PerkinElmer TopCount™ reader.

A further assay has as its target T2, MT1R (Homo sapiens, UniProt P48039).
T2 construct: host or cells: CHO-K1 (membrane preparations)
In words: MT1R activation, GTPγS scintillation proximity assay on CHO-K1 membranes. Particulars: eight concentrations, 0.01 to 100,000 nM. The class given is biochemical. Here is the method: as §1
On the technique in general: Scintillation proximity formats need no separation of bound from free tracer.

T2 sequence (P48039 whole entry): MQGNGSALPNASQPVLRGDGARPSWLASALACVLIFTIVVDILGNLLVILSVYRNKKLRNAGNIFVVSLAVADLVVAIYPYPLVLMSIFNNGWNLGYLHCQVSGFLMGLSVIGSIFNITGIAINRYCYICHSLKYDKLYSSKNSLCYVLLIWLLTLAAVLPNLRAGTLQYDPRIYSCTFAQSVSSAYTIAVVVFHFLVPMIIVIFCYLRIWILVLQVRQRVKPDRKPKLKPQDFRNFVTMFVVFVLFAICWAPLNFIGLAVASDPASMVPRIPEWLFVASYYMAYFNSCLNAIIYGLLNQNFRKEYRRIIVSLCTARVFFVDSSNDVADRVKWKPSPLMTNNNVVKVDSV
human 5-HT2AR, sequence (P28223 whole entry): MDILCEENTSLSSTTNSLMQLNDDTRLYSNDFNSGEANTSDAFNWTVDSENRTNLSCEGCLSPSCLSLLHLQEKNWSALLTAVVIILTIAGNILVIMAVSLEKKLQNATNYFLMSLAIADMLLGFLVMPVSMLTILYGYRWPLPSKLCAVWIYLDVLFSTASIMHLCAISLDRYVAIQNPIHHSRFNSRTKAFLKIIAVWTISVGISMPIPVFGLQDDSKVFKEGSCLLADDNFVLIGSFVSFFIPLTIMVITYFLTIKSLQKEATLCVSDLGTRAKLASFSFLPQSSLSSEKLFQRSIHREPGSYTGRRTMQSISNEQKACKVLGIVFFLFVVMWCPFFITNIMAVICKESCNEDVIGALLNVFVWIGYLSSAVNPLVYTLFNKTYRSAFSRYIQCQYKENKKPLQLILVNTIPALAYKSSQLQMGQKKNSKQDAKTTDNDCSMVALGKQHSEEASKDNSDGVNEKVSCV

As to `CCCN(CCC)C(=O)[C@@H](Cc1c[nH]c2ccccc12)NC(=O)[C@H](CCCNC(=N)N)NC(=O)[C@@H](Cc1ccccc1)NC(=O)[C@H](Cc1c[nH]cn1)NC(=O)CNC(=O)c1ccccc1` [Peptide 4] (Bz-GH[dF]R[dW]-NPr2), in the assay on MITF, the “Maximal induction of MITF protein expression vs vehicle” value worked out at 79%. Besides, the EC50 on human 5-HT2AR, on OP3R and on MT1R was over 100 µM in each case.
